Measurements as given in patent publication US6489331B1, “Remedies for diabetes” (Kyowa Hakko Kogyo Co., Ltd., priority 1998, dated 2002).
Counter-ions that a name gives are not always drawn. Like-named read-outs stand apart in the source and are kept apart here.

What was measured:
[1] = tested on: MIN6 cell; test: Insulin secretion enhancing action in cultured β-cell (MIN6); format: cell-based; details: in the presence of 14.5 mM glucose; drug concentration 1.0 μM
Experimental: Culture of the MIN6 cells and insulin secretion test utilizing the MIN6 cells were performed basically according to the methods described in literature (Ishihara et al., Diabetologia, vol. 36, pp.1139-1145, 1993). The effect of a compound on the insulin secretion in the presence of 14.5 mM glucose was determined by measuring insulin amounts in cell culture supernatants collected as follows. MIN6 cells cultured on a 24-well plate were washed twice by using 1 ml of Buffer A (119 mM sodium chloride, 4.74 mM potassium chloride, 2.54 mM calcium chloride, 1.19 mM magnesium sulfate, 1.19 mM potassium dihydrogenphosphate, 10 mM 2-[4-(2-hydroxyethyl)-1-piperazinyl]ethanesulfonic acid, 0.1% bovine serum albumin, pH 7.3) containing 2 mM glucose, and then were incubated in 1 ml of Buffer A containing 2 mM glucose at 37° C. for 45 minutes. After the incubation, the culture supernatant was changed to Buffer A (0.9 ml) containing a test compound at various concentrations and 2 mM glucose, and the cells were further incubated at 37° C. for 15 minutes. The MIN6 cells were stimulated with glucose by the addition of Buffer A (0.1 ml) containing 127 mM glucose to the culture (final glucose concentration: 14.5 mM). After the stimulation, the cells were further incubated at 37° C. for 45 minutes, and then the culture supernatant was collected.
Separately, the effect of a compound on the insulin secretion in the presence of 5 mM glucose was determined by measuring insulin amounts in cell culture supernatants collected as follows. MIN6 cells cultured on a 24-well plate were washed twice by using 1 ml of Buffer A containing 5 mM glucose, and then the culture supernatant was changed to Buffer A (0.9 ml) containing a test compound at various concentrations and 5 mM glucose. Then, the cells were incubated at 37° C. for 45 minutes (final glucose concentration: 5 mM), and the culture supernatant was collected.
After the culture supernatant was diluted with a phosphate buffer containing 1% bovine serum albumin, 0.1% Tween 20, 0.12% disodium ethylenediaminetetraacetate and 0.1% sodium azide, antibody-reactive insulin secreted in the culture supernatant was quantified by enzyme immunoassay or radio immunoassay. […] The results are indicated as averages (avg) for 3 to 4 samples with standard error values (se).

[2] = tested on: dd male mice; test: Acute toxicity test (minimum lethal dose); format: in vivo; details: po, mortality after seven days
Experimental: A test compound was orally administered to dd male mice (body weight: 20±1 g, n=3). Mortality rate after seven days was measured to determine minimum lethal dose (MLD).

[3] = tested on: Wistar male rats; test: Hyperglycemia suppression action after glucose-loading; format: in vivo; details: 30 mg/kg, po
Experimental: These rats were used for the experiment after starvation for 18 hours. A test compound was orally administered 1 hour before oral administration of glucose (2 g/kg). Jugular venous blood was collected before the administration of test compound, before the glucose-loading, 5, 10, 15, 30, 45 and 60 minutes after the glucose-loading, and plasma glucose concentration was measured (enzymatic method). The insulin level was indicated as amount of rat insulin (ng/mL).

[4] = tested on: Wistar male rats; details: iv; for Area of plasma insulin, test compound-administered group: after glucose-loading (10 mg/kg iv)
Experimental: Wistar male rats (body weight: about 250 g) starved for 18 hours were anesthetized by intraperitoneal administration of sodium pentobarbital (50 mg/kg), and fixed at the dorsal position. Cannulas were inserted into the right common carotid artery for blood collection and the left femoral vein for administration of drug and glucose, respectively. To these rats were intravenously administered 500 U/kg of heparin to prevent blood coagulation. After about 0.2 ml of blood was collected, a drug was intravenously administered. Two minutes after the administration of the drug, blood was collected, and then glucose (10 mg/kg) was immediately administered intravenously. Then, blood was collected every 20 seconds for 2 minutes. Insulin concentration in plasma obtained by centrifugation was measured by radioimmunoassay. From an insulin concentration which increased after the glucose-loading, its area was calculated and considered the amount of secreted insulin. The insulin level was indicated as the amount of rat insulin (ng/mL).

| Compound | Amount of secreted insulin (ng/ml) avg [1] [ng/mL] | % Ratio based on control (area of plasma insulin) ([4]; 1 mg/kg) [%] | Area of plasma insulin, test compound-administered group ([4]; 1 mg/kg) [ng·s/mL] | also measured |
| --- | --- | --- | --- | --- |
| CCCN1C(=O)N2C[C@H](C(C)(C)C)N=C2c2[nH]c(C3CCCC3)nc21.Cl [Compound 12, (S)-8-tert-butyl-2-cyclopentyl-7,8-dihydro-4-propyl-1H-imidazo[2,1-i]purin-5(4H)-one hydrochloride] | 227.8 | – | – | melting point: 184 to 186 °C |
| CCCN1C(=O)N2C[C@@H](Cc3ccccc3)N=C2c2[nH]c(C3CCCC3)nc21 [Compound 16, (R)-8-benzyl-2-cyclopentyl-7,8-dihydro-4-propyl-1H-imidazo[2,1-i]purin-5(4H)-one hydrochloride] | 229.5 | – | – | minimum lethal dose (MLD) [2]: not less than 300 mg/kg; Plasma glucose concentration ([3]; 0 minute (before glucose-loading)): 102 ± 4.6 mg/dL; Plasma glucose concentration ([3]; 5 minutes after glucose-loading): 147 ± 5.7 mg/dL; Plasma glucose concentration ([3]; 10 minutes after glucose-loading): 183 ± 9.1 mg/dL; Plasma glucose concentration ([3]; 15 minutes after glucose-loading): 186 ± 8.7 mg/dL; Plasma glucose concentration ([3]; 30 minutes after glucose-loading): 167 ± 3.3 mg/dL; Plasma glucose concentration ([3]; 45 minutes after glucose-loading): 165 ± 4.8 mg/dL; Plasma glucose concentration ([3]; 60 minutes after glucose-loading): 178 ± 4.7 mg/dL; Plasma glucose concentration ([3]; −1 minute): 114 ± 4.5 mg/dL; % Ratio based on control (area of plasma insulin) ([4]; 3 mg/kg): 246 ± 19%; Area of plasma insulin, test compound-administered group ([4]; 3 mg/kg): 17.28 ± 1.35 ng·s/mL |
| CCCN1C(=O)N2CC(Cc3cccc(F)c3)N=C2c2[nH]c(C3CCCC3)nc21 (stereo not shown) [Compound 19, 2-cyclopentyl-8-(3-fluorobenzyl)-7,8-dihydro-4-propyl-1H-imidazo[2,1-i]purin-5(4H)-one hydrochloride] | 223.8 | 291 ± 42 | 13.41 ± 1.95 | – |
| CCCN1C(=O)N2CC(Cc3ccc(Br)cc3)N=C2c2[nH]c(C3CCCC3)nc21 (stereo not shown) [Compound 23, 8-(4-bromobenzyl)-2-cyclopentyl-7,8-dihydro-4-propyl-1H-imidazo[2,1-i]purin-5(4H)-one hydrochloride] | 249.9 | 228 ± 50 | 11.85 ± 2.58 | – |
| CCCN1C(=O)N2CC(CCc3ccccc3)N=C2c2[nH]c(C3CCCC3)nc21 (stereo not shown) [Compound 31, 2-cyclopentyl-7,8-dihydro-8-phenethyl-4-propyl-1H-imidazo[2,1-i]purin-5(4H)-one hydrochloride] | 220.5 | 173 ± 16 | 9.00 ± 0.84 | – |
| CCCc1nc2c([nH]1)C1=N[C@H](Cc3ccccc3)CN1C(=O)N2CCC [Compound 35, (R)-8-benzyl-7,8-dihydro-2,4-dipropyl-1H-imidazo[2,1-i]purin-5(4H)-one hydrochloride] | 232.4 | 178 ± 23 | 15.69 ± 2.04 | – |
| CCCN1C(=O)N2C[C@@H](Cc3ccc(F)cc3)N=C2c2[nH]c(-c3ccoc3)nc21 [Compound 54, (R)-8-(4-fluorobenzyl)-2-(3-furyl)-7,8-dihydro-4-propyl-1H-imidazo[2,1-i]purin-5(4H)-one] | 216.1 | – | – | melting point: 149 to 150 °C |
